According to the METLIN SMRT retention time set (Domingo-Almenara et al. 2019):

Experiment: gradient 5% acetonitrile 3 min, to 50% in 2 min, to 85% in 15 min, held 3 min, 100 µL/min
Conditions: column: Zorbax Extend-C18 2.1 x 50 mm; eluents: water / acetonitrile, 0.1% formic acid
Procedure, shortened: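 Standards, all pure, were combined into mixtures of ~100 molecules and run at 100 μL/min on a Zorbax Extend-C18 column (2.1 × 50 mm, 1.8 μm) with water and acetonitrile, each containing 0.1% formic acid. A coupled quadrupole time-of-flight mass spectrometer operated in positive and negative ionization mode. Retention time values come from computationally picked adduct peaks, each inspected manually.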

Row | Compound | RP-LC retention time
1 | Cc1cc(=O)n(CC(=O)Nc2ccc(Cl)cc2)c(-c2ccc(F)cc2)n1 | 1120 s
2 | CC(=O)Nc1ccc(C2=NN(C(C)=O)C(c3ccc4c(c3)OCO4)C2)cc1 (stereo not drawn) | 666 s
3 | N#Cc1ccc(N2CCN(C(=O)COc3ccc4[nH]cc(CCN)c4c3)CC2)cc1 | 684 s
4 | Cc1ccc(=O)n(CC(=O)NCc2cccs2)n1 | 591 s
5 | CNC(=O)Cc1ccc(NC(=O)NC2CCCCC2)cc1 | 642 s
6 | Cc1ccc(NC(=O)Nc2cccc(-c3ccc(N4CCOCC4)nn3)c2)c(C)c1 | 732 s
7 | Nc1nc(F)nc2c1ncn2[C@@H]1O[C@H](CO)[C@@H](O)[C@@H]1O | 573 s
8 | O=C(Nc1ccccc1-c1nc2ccccc2[nH]1)c1cccc([N+](=O)[O-])c1 | 1040 s
9 | COc1ccc(NC(=O)Cc2nnc(-c3ccc4ncccc4c3)o2)cc1Cl | 728 s
10 | Cc1cccc(N2CCN(S(=O)(=O)c3cc(-c4nnc(C5CC5)o4)co3)CC2)c1 | 1020 s
11 | O=C(CSc1nnc(-c2ccncc2)o1)NCc1ccc2c(c1)OCO2 | 596 s
12 | Cc1nc(NCCNC(=O)c2snnc2C)cc(-n2cccn2)n1 | 627 s
13 | CCOc1cc(C(=O)Nc2c(-c3ccccc3)nc3ccccn23)cc(OCC)c1OCC | 759 s
14 | O=S(=O)(c1ccccc1Cl)N1CCN(c2ccc3nnc(-c4ccco4)n3n2)CC1 | 726 s
15 | CCCn1c(C2CCN(S(=O)(=O)c3ccccc3)C2)nc2cccnc21 (stereo not drawn) | 783 s
16 | Cc1nc(-c2cn(C)c3ncccc23)sc1C(=O)NCc1ccc(F)cc1Cl | 990 s
17 | O=C(Nc1cnn(-c2ncc(N3CCCC3)cn2)c1)c1cccc(C(F)(F)F)c1 | 917 s
18 | c1ccc(-c2nc(C3CCN(Cc4cccs4)C3)no2)nc1 (stereo not drawn) | 583 s
19 | CC(C)n1c(=O)sc2cc(S(=O)(=O)N3CCC(C(=O)N4CCOCC4)CC3)ccc21 | 762 s
20 | CC(=O)N1CCc2cc(N3CC(C(=O)NCc4ccc(Cl)cc4)CC3=O)ccc21 (stereo not drawn) | 720 s
21 | O=C(Nc1ccc2nc3n(c(=O)c2c1)CCC3)Nc1ccccc1Br | 726 s
22 | Cc1cccc2cc(-c3noc(C(C)C)n3)c(NCCc3ccc(S(N)(=O)=O)cc3)nc12 | 1270 s
23 | NS(=O)(=O)c1ccc(NS(=O)(=O)c2cc(-c3ccno3)cs2)cc1 | 710 s
24 | Cc1ccc2oc(-c3nnc(C(=O)NCCCN4CCN(C)CC4)o3)c(C)c2c1 | 622 s
25 | Cc1nc(N2CCCCC2)cc(N2CCN(C(=O)c3ccc(Br)o3)CC2)n1 | 689 s

Row | Compound | RP-LC retention time
26 | CC1(CNS(=O)(=O)c2ccc(F)cc2F)CCOCC1 | 779 s
27 | Cc1cc(S(=O)(=O)Nc2cccn3c(C4CCC4)nnc23)ccc1F | 822 s
28 | O=C(Cn1cccc1-c1nc(-c2ccc(F)cc2)no1)N1CCc2ccccc21 | 1140 s
29 | O=c1ccn(-c2ccc(Cl)cc2)nc1-c1nc(-c2ccccc2Br)no1 | 1000 s
30 | CCN1CCN(C(=O)C2CCN(S(=O)(=O)c3ccc4c(c3)sc(=O)n4C(C)C)CC2)CC1 | 650 s
31 | Clc1ccc(-c2csc(Cc3nc(-c4ccc5c(c4)OCO5)no3)n2)cc1 | 1200 s
32 | O=C(Nc1ccc(F)cc1F)[C@@H]1OCC(=O)N(C2CC2)[C@H]1c1ccccc1 | 785 s
33 | O=C(c1cc(-c2ccncc2)n[nH]1)N1CCC(C(=O)N2CCc3ccccc32)CC1 | 614 s
34 | CCc1nnc(-c2cccn2CC(=O)NCc2cccc(Br)c2)o1 | 835 s
35 | CC12CC(NC(=O)N1c1cccc(C(=O)NCc3cccnc3)c1)c1cc(Br)ccc1O2 (stereo not drawn) | 642 s
36 | CC1CCN(S(=O)(=O)c2ccc(-c3nnc(C(=O)N4CCC5(CC4)OCCO5)o3)cc2)CC1 | 952 s
37 | C[C@@H]1CN(CC(=O)Nc2ccc3c(c2)Cc2cccc(-c4cc(=O)cc(N5CCOCC5)o4)c2S3)C[C@H](C)O1 | 748 s
38 | CSc1ccc(NC(=O)CCl)cc1 | 751 s
39 | Cc1c(C(=O)C(=O)Nc2cccc(F)c2)c2ccccc2n1C | 960 s
40 | Nc1nc(N2CCOCC2)ncc1C(=O)NCc1ccccc1 | 609 s
41 | CN(C)S(=O)(=O)c1ccc(-c2nnc(C(=O)N3CCC4(CC3)OCCO4)o2)cc1 | 746 s
42 | Cc1ccc(C(=O)N2CCC(n3c(C)cnc3C)C2)s1 (stereo not drawn) | 585 s
43 | O=C(c1cn(-c2cc(N3CCSCC3)ncn2)cn1)N1CCSCC1 | 774 s
44 | O=C(CCn1cnc2cc(-c3noc(-c4cncc(Br)c4)n3)ccc21)N1CCCCC1 | 782 s
45 | CCCc1cc(N2CCN(C(=O)c3ccc4c(c3)OCO4)CC2)nc2nnc(CC)n12 | 650 s
46 | Cc1cc(-c2c(C)sc(C)c2S(=O)(=O)Nc2cccc(Cl)c2)n[nH]1 | 1110 s
47 | Cc1noc(-c2nc(Cc3ccc(F)cc3)no2)n1 | 953 s
48 | O=C(CCC1CCN(S(=O)(=O)c2ccccc2)CC1)NCc1ccco1 | 776 s
49 | O=C(NCCCN1CCOCC1)C1CCCN(c2ncnc3c2nc2n3CCCCC2)C1 (stereo not drawn) | 580 s

More lines, now with the values ahead:

Row | RP-LC retention time | Compound
50 | 1110 s | Cc1cc(C)c(-c2csc(NC(=O)c3ccc(S(=O)(=O)N4CCOCC4)cc3)n2)c(C)c1
51 | 592 s | CCN(CC)CCNC(=O)Cn1c2ccccc2c2nc(=O)cc(C)n21
52 | 1240 s | O=S(=O)(NCCC1=CCCCC1)c1ccc(-c2cc(C(F)(F)F)on2)o1
53 | 618 s | CCOc1ccc(CNc2nc3ccncc3n(CC)c2=O)cc1OC
54 | 828 s | O=C(Cc1ccccc1Cl)N1CCN(c2cc(-c3ccccc3)[nH]n2)CC1
55 | 1040 s | O=C1CC(c2noc(-c3ccccc3)n2)CN1c1ccc(Cl)cc1 (stereo not drawn)
56 | 723 s | Cc1nc2ccn(Cc3ccco3)c(=O)c2cc1C(=O)NC1CCCC1
57 | 738 s | Cc1ccc(NC(=O)N2CCC(OC3CCN(S(C)(=O)=O)CC3)CC2)cc1
58 | 885 s | Cc1ccc(S(=O)(=O)N2CCC(CCNC(=O)NC(C)(C)C)CC2)cc1
59 | 760 s | COc1ccc(-c2csc3c(=O)n(CC(=O)N4CCCC4)cnc23)cc1
60 | 733 s | CCn1c(C(=O)N2CCCC(C(=O)NCCc3ccc(S(N)(=O)=O)cc3)C2)cc2sccc21 (stereo not drawn)
61 | 895 s | NC(=O)c1ccccc1OCC(=O)Nc1ccc(Cl)c(Cl)c1
62 | 1070 s | CCc1cc(C(=O)N2CCCCCC2)nc2cc(-c3ccsc3)nn12
63 | 951 s | CCCCCNC(=O)C1CCN(c2cc(Sc3cc(C)ccc3C)ncn2)CC1
64 | 661 s | COc1ccc(N2CCN(C(=O)c3c(C)sc4ccn(C)c(=O)c34)CC2)cc1
65 | 860 s | CCS(=O)(=O)N1CC(=O)N(c2ccc(C)c(C)c2)C(C)(C(=O)NCc2ccccc2)C1 (stereo not drawn)
66 | 664 s | Cc1ccc([N+](=O)[O-])cc1S(=O)(=O)Nc1ccc(-c2cn3ccccc3n2)cc1
67 | 792 s | O=C(c1cccs1)N1CCc2ccc([N+](=O)[O-])cc2C1
68 | 610 s | NS(=O)(=O)c1ccc(NC(=O)c2cnc3ccccn3c2=O)cc1
69 | 1130 s | COc1cc(OC)cc(-c2noc(-c3nnn(Cc4nc(-c5ccccc5OC)oc4C)c3C)n2)c1

Row | RP-LC retention time | Compound
70 | 820 s | Cc1nc(-c2ccc(OC3CCN(C(=O)NC4CCCC4)C3)cc2)no1 (stereo not drawn)
71 | 672 s | CN1CCN(C(=O)C2CCN(c3nc4ccc(-c5ccccc5)nc4s3)CC2)CC1
72 | 576 s | Cc1noc([C@H]2CCN(C3CCSCC3)C[C@H]2NC(=O)C2CC2)n1
73 | 836 s | COc1ccccc1-c1nc2nccc(-c3ccco3)n2n1
74 | 640 s | NC(=O)C1CCN(C(=O)COCc2cc(-c3cccs3)on2)CC1
75 | 849 s | CCOC(=O)C1=C(C)NC2=C(C(=O)C(C(=O)OC)C(C)C2)C1c1ccccc1OC (stereo not drawn)
76 | 934 s | CCc1ccc(NC(=O)N2CCc3c(c(-c4nc(C5CC5)no4)nn3C)C2)cc1
77 | 1010 s | O=S(=O)(c1ccccc1)N1CCc2nc(-c3ccccc3)ncc2C1
78 | 761 s | Cn1nnc2c(Nc3ccc(Br)cc3F)ncnc21
79 | 594 s | CCN1CCN(c2cc(C(=O)O)c3cc(NS(=O)(=O)c4cc(F)ccc4F)ccc3n2)CC1
80 | 687 s | CCC(=O)N1CCc2cc(N3CC(C(=O)NCC(C)C)CC3=O)ccc21 (stereo not drawn)
81 | 834 s | CCOc1ccc(CN2CCc3nc(N4CCN(c5ccccc5F)CC4)ncc3C2)cc1
82 | 812 s | CCCC(=O)Nc1nc(-c2ccc3c(c2)NC(=O)C(C)O3)c(C)s1 (stereo not drawn)
83 | 1120 s | COc1ccccc1N1CCN(c2ncc(S(=O)(=O)c3ccc(C(C)C)cc3)c(N)n2)CC1
84 | 899 s | Nc1ccc(Oc2ccc(N)c([N+](=O)[O-])c2)cc1[N+](=O)[O-]
85 | 562 s | Cc1ccc2c(C(=O)N3CCN(CC(C)C)CC3)cc(NC(=O)C3CCC3)cc2n1
86 | 639 s | COc1ccc(-c2nc(C)cc(C)c2CNS(=O)(=O)c2ccccc2)cc1
87 | 760 s | CCOC(=O)C(CC)Oc1cc(O)c2c(=O)cc(-c3ccccc3)oc2c1 (stereo not drawn)
88 | 872 s | O=C1NC2(CCN(C(=O)Nc3ccc(Cl)cc3)CC2)N=C1c1cccc(F)c1
